Measured values: US5135943A, “1H-imidazole derivative compounds and pharmaceutical compositions containing the same” (priority 1984, dated 1992)
Converted amounts (≈) assume the structure as drawn.

Legend:
Candida albicans = experiment: MIC by two-fold dilution, Candida albicans; assay type: cell-based
Text: A number of compounds with antimycotic and/or fungicidal properties, which are useful in pharmaceutical compositions, are currently known. These include the commercially successful Miconazole having the formula II [drawing 2] Miconazole has a structure chemically similar to the 1H-imidazole derivative compounds of the invention. Miconazole is effective against a number of yeasts, dermatophytes and fungi. This effectiveness can be measured by culturing these microorganisms in vitro and applying a preparation containing the antimycotic compound, Miconazole. The results of this type of in vitro experiment is expressed in terms of the Minimum Inhibitory Concentration (MIC), i.e. the minimum concentration which inhibits the growth of the microorganism. For example, the MIC for Miconazole against a particular Candida albicans strain is found to be 10.7 micrograms/milliliter. The effectiveness of Miconazole as an antimycotic compound is measured in vivo by applying a suspension containing the drug to the skin of a number of animals and measuring the proportion of animals on which growth of the microorganism is inhibited as a function of time. Typically, after 25 days, about 1/4 of the animals were cured, when treated with a cream containing 2 % by weight Miconazole. Of course, any pharmaceutical preparation for treating a disease in a human must satisfy certain toxicity requirements. […] Toxicity tests have been performed on the IH-imidazole derivative compounds of the invention and on Miconazole and other known compounds having antimycotic properties. In toxicity tests the LD50 (the dose at which 50 % mortality occurs) is measured.
(§1) Minimum Inhibitory Concentrations (MICS) of Sertaconazole and Miconazole against 107 yeasts, 47 dermatophytes and 4 fungi were determined by a two-fold dilution method.

Malasezzia furfur = experiment: MIC by two-fold dilution, Malasezzia furfur; assay type: cell-based; settings: 20 strains
Protocol: as §1

[1] = system: Trichophyton menta-grophytes; experiment: MIC by two-fold dilution, Trichophyton mentagrophytes; assay type: cell-based; settings: 30 strains, read-out: Minimum Inhibitory Concentration
Protocol: as §1

Gram-positive germs = experiment: MIC by two-fold dilution, Gram-positive germs; assay type: cell-based; settings: 21 strains; read-out: Minimum Inhibitory Concentration
[2] = Acute toxicity (LD50) in rat, three administration routes; settings: in vivo, males
Protocol: Toxicity of Sertaconazole, Microazole and Martin's compounds 1, 2 and 3, as shown below, has been tested by standard methods. Both acute toxicity, subacute toxicity and chronic toxicity were studied
Oral, intraperitoneal and subcutaneous acute toxicity of sertaconazole and miconazole have been investigated. LD50 in mouse and rat, male and female, were measured.

[3] = Prolonged subacute toxicity in rats; assay type: in vivo, rat; settings: rat, in vivo, po
Protocol: In a study of prolonged subacute toxicity of Miconazole in rats, among other effects, significant hepatomegalias in females with a dosage of under 30 mg/kg p.o. and in males with a dosage of under 60 mg/kg p.o. were observed.

Clc1ccc(C(Cn2ccnc2)OCc2csc3c(Cl)cccc23)c(Cl)c1 (stereo not drawn) [Sertaconazole]
MIC (Candida albicans; Candida albicans, 52 strains, read-out: Minimum Inhibitory Concentration): 6 µg/mL (≈ 13.7 µM)
increase of activity in comparison to Miconazole (Candida albicans; in vitro): 43.9%
Minimum Inhibitory Concentration (Malasezzia furfur): 25/8
MIC [1]: 2.6 µg/mL (≈ 5.94 µM)
MIC (Gram-positive germs): 0.97 µg/mL (≈ 2.22 µM)
LD50 ([2]; ip, intraperitoneal): > 8000 mg/kg
LD50 ([2]; oral): > 8000 mg/kg
LD50 ([2]; sc, subcutaneous): > 8000 mg/kg
NOAEL [3]: ≥ 300 mg/kg
